Assay results taken from ChEMBL document CHEMBL2440046, “Anabaseine analogues as modulators of nicotinic acetylcholine receptor” (ACS Med Chem Lett, 2013).

Legend:
[1] = target: Neuronal acetylcholine receptor; alpha4/beta2 (Rattus norvegicus, UniProt P09483+P12390); assay: Displacement of [3H]-cytisine from Sprague-Dawley rat brain alpha4beta2 nAChR after 4 hrs by liquid scintillation counting analysis
[2] = target: Neuronal acetylcholine receptor subunit alpha-7 (Rattus norvegicus, UniProt Q05941); assay: Displacement of [125I]-alpha-bungarotoxin from Sprague-Dawley rat brain alpha7 nAChR after 3 hrs by liquid scintillation counting analysis
Sequence of Neuronal acetylcholine receptor subunit alpha-7 (Q05941 whole entry): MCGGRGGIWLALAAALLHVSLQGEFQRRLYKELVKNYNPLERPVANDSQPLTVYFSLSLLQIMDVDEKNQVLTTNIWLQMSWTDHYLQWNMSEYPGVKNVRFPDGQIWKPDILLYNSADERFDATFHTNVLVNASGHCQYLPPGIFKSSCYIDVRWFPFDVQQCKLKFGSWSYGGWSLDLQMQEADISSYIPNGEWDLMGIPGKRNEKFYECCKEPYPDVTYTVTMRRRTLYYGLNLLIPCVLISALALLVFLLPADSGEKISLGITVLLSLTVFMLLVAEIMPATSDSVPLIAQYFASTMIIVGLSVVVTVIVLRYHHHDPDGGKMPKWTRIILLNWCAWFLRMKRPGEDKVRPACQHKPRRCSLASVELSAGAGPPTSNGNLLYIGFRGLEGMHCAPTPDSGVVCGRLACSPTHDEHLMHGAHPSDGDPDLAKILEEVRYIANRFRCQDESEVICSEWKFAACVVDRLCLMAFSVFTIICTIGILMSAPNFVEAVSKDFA

Sequence of Neuronal acetylcholine receptor; alpha4/beta2 (P09483 whole entry): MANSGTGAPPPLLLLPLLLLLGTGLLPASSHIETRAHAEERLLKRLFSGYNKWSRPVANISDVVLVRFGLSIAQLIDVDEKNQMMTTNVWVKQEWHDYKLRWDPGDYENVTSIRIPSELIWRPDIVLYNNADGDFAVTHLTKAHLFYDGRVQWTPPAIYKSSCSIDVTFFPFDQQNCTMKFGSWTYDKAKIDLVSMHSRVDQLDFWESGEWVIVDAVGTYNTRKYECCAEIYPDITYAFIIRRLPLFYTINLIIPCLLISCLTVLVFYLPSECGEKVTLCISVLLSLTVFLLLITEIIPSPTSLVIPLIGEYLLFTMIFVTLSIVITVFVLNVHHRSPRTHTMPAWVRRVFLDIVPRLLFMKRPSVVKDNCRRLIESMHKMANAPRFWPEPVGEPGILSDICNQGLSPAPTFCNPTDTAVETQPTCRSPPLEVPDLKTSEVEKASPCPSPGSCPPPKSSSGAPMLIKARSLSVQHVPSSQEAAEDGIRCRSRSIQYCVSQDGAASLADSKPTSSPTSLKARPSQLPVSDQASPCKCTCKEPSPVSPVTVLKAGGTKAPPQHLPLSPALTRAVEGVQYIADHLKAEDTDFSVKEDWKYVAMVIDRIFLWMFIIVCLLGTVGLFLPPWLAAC
Sequence of Neuronal acetylcholine receptor; alpha4/beta2 (P12390 whole entry): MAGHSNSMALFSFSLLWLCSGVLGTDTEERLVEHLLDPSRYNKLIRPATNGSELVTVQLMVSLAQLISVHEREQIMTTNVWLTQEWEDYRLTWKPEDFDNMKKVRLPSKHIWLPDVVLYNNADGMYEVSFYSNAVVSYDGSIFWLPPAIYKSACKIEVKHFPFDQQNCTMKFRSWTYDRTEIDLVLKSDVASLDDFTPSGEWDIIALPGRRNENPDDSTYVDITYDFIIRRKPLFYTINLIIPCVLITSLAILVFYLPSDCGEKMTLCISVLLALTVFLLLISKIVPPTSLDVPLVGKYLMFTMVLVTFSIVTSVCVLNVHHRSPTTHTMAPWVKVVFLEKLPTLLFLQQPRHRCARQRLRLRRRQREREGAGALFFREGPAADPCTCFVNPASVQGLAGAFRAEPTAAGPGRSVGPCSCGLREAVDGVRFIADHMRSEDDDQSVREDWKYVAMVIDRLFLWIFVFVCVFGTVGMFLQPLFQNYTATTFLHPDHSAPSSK

COc1ccc(CC2C(c3cccnc3)=N[C@@H]3CC[C@H]2C3)c(OC)c1 (stereo partly drawn)
Ki [1]: 347 nM | Ki [2]: 4400 nM

Nc1ccc(CC2C(c3cccnc3)=N[C@H]3CC[C@@H]2C3)cc1 (stereo partly drawn)
Ki [1]: 34.1 nM | Ki [2]: 3.43 nM

COc1ccc(CC2C(c3cccnc3)=N[C@H]3CC[C@@H]2C3)c(OC)c1 (stereo partly drawn)
Ki [1]: 219 nM | Ki [2]: 16.4 nM

Oc1ccc(CC2C(c3cccnc3)=N[C@H]3CC[C@@H]2C3)cc1 (stereo partly drawn)
Ki [1]: 72.5 nM | Ki [2]: 34.1 nM
